Laboratory results: ChEMBL document CHEMBL1201862, “PubChem BioAssay data set” (2004)
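Results reflect a 48-hour exposure of cells in 96-well plates to compound at five concentrations. GI50 = concentration required for 50% inhibition of growth.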 Activity calls are given as the source filed them. Rule as the data show it: active = GI50 up to about 1.1 µM and inactive = higher.

Legend:
Experiment in all cases: growth of human tumour cells (NCI), 48 h
[1] = test system: ACHN
[2] = test system: DLD-1
[3] = test system: DMS-114
[4] = test system: DMS-273
[5] = test system: HOP-92
[6] = test system: IGROV-1
[7] = test system: NCI-H460
[8] = test system: SF-268
[9] = test system: SF-539
[10] = test system: SK-MEL-2
[11] = test system: SK-OV-3
[12] = test system: SNB-78
[13] = test system: U-251
[14] = test system: UACC-257
[15] = test system: UACC-62
[16] = test system: KM-20L2

Row | Compound | GI50 [1] | GI50 [2] | GI50 [3] | GI50 [4] | GI50 [5] | GI50 [6] | GI50 [7] | GI50 [8] | GI50 [9] | GI50 [10] | GI50 [11] | GI50 [12] | GI50 [13] | GI50 [14] | GI50 [15] | GI50 [16]
1 | CCN1c2ccccc2-c2c3c1cc(C)cc3c1ccccc1[n+]2CC | 2.16 µM (inactive) | 2.55 µM (inactive) | 0.461 µM (active) | 0.385 µM (active) | 1.4 µM (inactive) | 1.66 µM (inactive) | 1.23 µM (inactive) | 0.522 µM (active) | 1.19 µM (inactive) | 1.21 µM (inactive) | 1.83 µM (inactive) | 2.64 µM (inactive) | 0.571 µM (active) | 0.437 µM (active) | 0.743 µM (active) | 
2 | CC(=O)OC1COC(N2CCc3ccccc32)C(OC(C)=O)C1OC(C)=O (stereo not given) | > 100 µM (inactive) | > 100 µM (inactive) | > 91.6 µM (inactive) | > 100 µM (inactive) |  | > 100 µM (inactive) | > 100 µM (inactive) | > 100 µM (inactive) | > 100 µM (inactive) | > 100 µM (inactive) | > 100 µM (inactive) | > 76.4 µM (inactive) | > 100 µM (inactive) | > 100 µM (inactive) | > 94.6 µM (inactive) | > 100 µM (inactive)
3 | CC(C)[C@H](CCl)NC(=O)c1cccc(C(=O)N[C@H](CCl)C(C)C)n1 (stereo in doubt) | > 100 µM (inactive) | > 100 µM (inactive) | > 100 µM (inactive) | > 100 µM (inactive) | > 100 µM (inactive) | > 100 µM (inactive) | > 100 µM (inactive) | > 100 µM (inactive) | > 100 µM (inactive) |  | > 100 µM (inactive) | > 100 µM (inactive) | > 100 µM (inactive) |  |  | > 100 µM (inactive)
4 | CN1C(=S)CSc2ccccc21 | > 100 µM (inactive) | > 100 µM (inactive) | > 100 µM (inactive) | > 100 µM (inactive) | 90.2 µM (inactive) | > 100 µM (inactive) | > 100 µM (inactive) | > 100 µM (inactive) | > 100 µM (inactive) | > 100 µM (inactive) | > 100 µM (inactive) | > 100 µM (inactive) | > 100 µM (inactive) | > 100 µM (inactive) |  | > 100 µM (inactive)
5 | COC(=O)CCC(NC(=S)N/N=C(\C)c1nccs1)C(=O)OC (stereo not given) | 47.6 µM (inactive) | 40.6 µM (inactive) | 22.6 µM (inactive) |  | > 100 µM (inactive) | 73.5 µM (inactive) | 53.3 µM (inactive) | 56.6 µM (inactive) | > 100 µM (inactive) | > 100 µM (inactive) | > 100 µM (inactive) | > 100 µM (inactive) | 78.2 µM (inactive) | > 100 µM (inactive) | 28.1 µM (inactive) | 31.8 µM (inactive)
6 | O=C1CN=C(C[N+](=O)[O-])c2ccccc21 | > 100 µM (inactive) | > 100 µM (inactive) | > 100 µM (inactive) | > 100 µM (inactive) | > 100 µM (inactive) | > 100 µM (inactive) | > 100 µM (inactive) | > 100 µM (inactive) | > 100 µM (inactive) | > 100 µM (inactive) | > 100 µM (inactive) | > 100 µM (inactive) | > 100 µM (inactive) | > 100 µM (inactive) |  | > 100 µM (inactive)
7 | CC(CN1CCN(CC(C)Nc2ccnc3cc(Cl)ccc23)CC1)Nc1ccnc2cc(Cl)ccc12 (stereo not given) | 28.8 µM (inactive) | 16.9 µM (inactive) | 20.2 µM (inactive) | 16.3 µM (inactive) |  |  | 14.7 µM (inactive) | 2.81 µM (inactive) | 16 µM (inactive) |  | 34 µM (inactive) | 21.1 µM (inactive) | 18.5 µM (inactive) | 19.4 µM (inactive) | 17.9 µM (inactive) | 13.4 µM (inactive)
8 | N#CC(C#N)=Cc1ccc(Oc2ccccc2)cc1 | 21.3 µM (inactive) | 14.1 µM (inactive) | 26.2 µM (inactive) | 18.3 µM (inactive) |  | 29.9 µM (inactive) | 53.2 µM (inactive) | 27.9 µM (inactive) | 19.9 µM (inactive) | 24.3 µM (inactive) | > 100 µM (inactive) | 28.2 µM (inactive) | 23.4 µM (inactive) | 25.6 µM (inactive) | 16.8 µM (inactive) | > 91.4 µM (inactive)
9 | O=C1C(Cl)C(c2ccccc2Cl)N1n1cnc2ccccc2c1=O (stereo not given) | 76.2 µM (inactive) | 61.7 µM (inactive) | 16.4 µM (inactive) | 26 µM (inactive) |  | 80.4 µM (inactive) | > 100 µM (inactive) | 54.5 µM (inactive) |  | 24.7 µM (inactive) | 24.2 µM (inactive) | > 100 µM (inactive) | 48.4 µM (inactive) | 37.2 µM (inactive) | 21.6 µM (inactive) | > 100 µM (inactive)
